# Results taken from US4245106A, “Process for the preparation of 1-alkyl-3-aryl-4-pyrazolecarboxylates” (Monsanto Company, priority 1979, dated 1981).
# Columns and labels:
# Format in all cases: in vivo
# Barnyard grass [1] = experiment: pre-emergent herbicidal activity test
# Method: (§1) Table II summarizes results of tests conducted to determine the pre-emergent as well as the post-emergent herbicidal activity of the compounds. The pre-emergent test was conducted as follows:
# (§2) A good grade of top soil was placed in aluminum pans and compacted to a depth of three-eighths to one-half inch from the top of the pan. On the top of the soil was placed a predetermined number of seeds or vegetative propagules of various plant species. The soil required to level fill the pans after seeding or adding vegetative propagules was weighed into a pan. A known amount of the active ingredient applied in a solvent or as a wettable powder and the soil were thoroughly mixed, and used as a cover layer for prepared pans. After treatment the pans were moved into a greenhouse bench where they were watered from below as needed to give adequate moisture for germination and growth.
# (§3) A herbicial rating code was used to signify the extent of phytotoxicity of each species. The rating are defined as follows: […]
# Bromus tectorum [2] = experiment: pre-emergent herbicidal activity test
# Method: as §1, §2, §3
# Canada Thistle [3] = experiment: pre-emergent herbicidal activity test
# Method: as §1, §2, §3
# Cocklebur [4] = experiment: pre-emergent herbicidal activity test
# Method: as §1, §2, §3
# Johnsongrass [5] = experiment: pre-emergent herbicidal activity test
# Method: as §1, §2, §3
# Lambsquarter [6] = experiment: pre-emergent herbicidal activity test
# Method: as §1, §2, §3
# Morningglory [7] = experiment: pre-emergent herbicidal activity test
# Method: as §1, §2, §3
# Nutsedge [8] = experiment: pre-emergent herbicidal activity test
# Method: as §1, §2, §3
# Quackgrass [9] = experiment: pre-emergent herbicidal activity test
# Method: as §1, §2, §3
# Smartweed [10] = experiment: pre-emergent herbicidal activity test
# Method: as §1, §2, §3
# Velvetleaf [11] = experiment: pre-emergent herbicidal activity test
# Method: as §1, §2, §3
# Barnyard grass [12] = experiment: post-emergent herbicidal activity test
# Method: (§4) The post-emergent tests were conducted as follows. The active ingredients are applied in spray form to two or three-week old specimens of various plant species. The spray, a solution or wettable powder suspension containing the appropriate rate of active ingredient to give the desired test rate and a surfactant, is applied to the plants. The treated plants are placed in a greenhouse and unless otherwise noted approximately four weeks later the effects are observed and recorded.
# Bromus tectorum [13] = experiment: post-emergent herbicidal activity test
# Method: as §4
# Canada Thistle [14] = experiment: post-emergent herbicidal activity test
# Method: as §4
# Cocklebur [15] = experiment: post-emergent herbicidal activity test
# Method: as §4
# Johnsongrass [16] = experiment: post-emergent herbicidal activity test
# Method: as §4
# Lambsquarter [17] = experiment: post-emergent herbicidal activity test
# Method: as §4
# Morningglory [18] = experiment: post-emergent herbicidal activity test
# Method: as §4
# Nutsedge [19] = experiment: post-emergent herbicidal activity test
# Method: as §4
# Quackgrass [20] = experiment: post-emergent herbicidal activity test
# Method: as §4
# Smartweed [21] = experiment: post-emergent herbicidal activity test
# Method: as §4
# Velvetleaf [22] = experiment: post-emergent herbicidal activity test
# Method: as §4
# [23] = 11.2 Kg/Ha, approximately 28 days after seeding and treating
# [24] = *11.2 Kg/Ha, observed approximately 14 days after treatment
# [25] = 11.2 Kg/Ha, approximately four weeks later
# Note: ranges in brackets are in %.
compound,measurement,setting,value
CCOC(=O)c1cn(C)nc1-c1cccc(C(F)(F)F)c1 [Example 12],"Pre-Emergent herbicidal rating, K Barnyard grass",Barnyard grass [1]; [23],3 (75-100)
same,"Pre-Emergent herbicidal rating, K Barnyard grass",Barnyard grass [1]; [24],3 (75-100)
same,"Pre-Emergent herbicidal rating, J Bromus tectorum",Bromus tectorum [2]; [23],1 (25-49)
same,"Pre-Emergent herbicidal rating, J Bromus tectorum",Bromus tectorum [2]; [24],2 (50-74)
same,"Pre-Emergent herbicidal rating, A Canada Thistle",Canada Thistle [3]; [23],0 (0-24)
same,"Pre-Emergent herbicidal rating, A Canada Thistle",Canada Thistle [3]; [24],2 (50-74)
same,"Pre-Emergent herbicidal rating, B Cocklebur",Cocklebur [4]; [23],0 (0-24)
same,"Pre-Emergent herbicidal rating, B Cocklebur",Cocklebur [4]; [24],0 (0-24)
same,"Pre-Emergent herbicidal rating, I Johnsongrass",Johnsongrass [5]; [23],0 (0-24)
same,"Pre-Emergent herbicidal rating, I Johnsongrass",Johnsongrass [5]; [24],0 (0-24)
same,"Pre-Emergent herbicidal rating, E Lambsquarter",Lambsquarter [6]; [23],3 (75-100)
same,"Pre-Emergent herbicidal rating, E Lambsquarter",Lambsquarter [6]; [24],3 (75-100)
same,"Pre-Emergent herbicidal rating, D Morningglory",Morningglory [7]; [23],3 (75-100)
same,"Pre-Emergent herbicidal rating, D Morningglory",Morningglory [7]; [24],3 (75-100)
same,"Pre-Emergent herbicidal rating, G Nutsedge",Nutsedge [8]; [23],0 (0-24)
same,"Pre-Emergent herbicidal rating, G Nutsedge",Nutsedge [8]; [24],0 (0-24)
same,"Pre-Emergent herbicidal rating, H Quackgrass",Quackgrass [9]; [23],0 (0-24)
same,"Pre-Emergent herbicidal rating, H Quackgrass",Quackgrass [9]; [24],0 (0-24)
same,"Pre-Emergent herbicidal rating, F Smartweed",Smartweed [10]; [23],3 (75-100)
same,"Pre-Emergent herbicidal rating, F Smartweed",Smartweed [10]; [24],3 (75-100)
same,"Pre-Emergent herbicidal rating, C Velvetleaf",Velvetleaf [11]; [23],3 (75-100)
same,"Pre-Emergent herbicidal rating, C Velvetleaf",Velvetleaf [11]; [24],3 (75-100)
same,"Post-Emergent herbicidal rating, K Barnyard grass",Barnyard grass [12]; [25],0 (0-24)
same,"Post-Emergent herbicidal rating, K Barnyard grass",Barnyard grass [12]; [24],1 (25-49)
same,"Post-Emergent herbicidal rating, J Bromus tectorum",Bromus tectorum [13]; [25],0 (0-24)
same,"Post-Emergent herbicidal rating, J Bromus tectorum",Bromus tectorum [13]; [24],0 (0-24)
same,"Post-Emergent herbicidal rating, A Canada Thistle",Canada Thistle [14]; [25],1 (25-49)
same,"Post-Emergent herbicidal rating, A Canada Thistle",Canada Thistle [14]; [24],1 (25-49)
same,"Post-Emergent herbicidal rating, B Cocklebur",Cocklebur [15]; [25],1 (25-49)
same,"Post-Emergent herbicidal rating, B Cocklebur",Cocklebur [15]; [24],1 (25-49)
same,"Post-Emergent herbicidal rating, I Johnsongrass",Johnsongrass [16]; [25],0 (0-24)
same,"Post-Emergent herbicidal rating, I Johnsongrass",Johnsongrass [16]; [24],0 (0-24)
same,"Post-Emergent herbicidal rating, E Lambsquarter",Lambsquarter [17]; [25],1 (25-49)
same,"Post-Emergent herbicidal rating, E Lambsquarter",Lambsquarter [17]; [24],2 (50-74)
same,"Post-Emergent herbicidal rating, D Morningglory",Morningglory [18]; [25],2 (50-74)
same,"Post-Emergent herbicidal rating, D Morningglory",Morningglory [18]; [24],3 (75-99)
same,"Post-Emergent herbicidal rating, G Nutsedge",Nutsedge [19]; [25],0 (0-24)
same,"Post-Emergent herbicidal rating, G Nutsedge",Nutsedge [19]; [24],0 (0-24)
same,"Post-Emergent herbicidal rating, H Quackgrass",Quackgrass [20]; [25],0 (0-24)
same,"Post-Emergent herbicidal rating, H Quackgrass",Quackgrass [20]; [24],0 (0-24)
same,"Post-Emergent herbicidal rating, F Smartweed",Smartweed [21]; [25],1 (25-49)
same,"Post-Emergent herbicidal rating, F Smartweed",Smartweed [21]; [24],0 (0-24)
same,"Post-Emergent herbicidal rating, C Velvetleaf",Velvetleaf [22]; [25],1 (25-49)
same,"Post-Emergent herbicidal rating, C Velvetleaf",Velvetleaf [22]; [24],1 (25-49)
CCOC(=O)c1cn(C)nc1-c1ccc(C(F)(F)F)cc1 [Example 17],"Pre-Emergent herbicidal rating, K Barnyard grass",Barnyard grass [1]; [23],2 (50-74)
same,"Pre-Emergent herbicidal rating, J Bromus tectorum",Bromus tectorum [2]; [23],1 (25-49)
same,"Pre-Emergent herbicidal rating, A Canada Thistle",Canada Thistle [3]; [23],0 (0-24)
same,"Pre-Emergent herbicidal rating, B Cocklebur",Cocklebur [4]; [23],0 (0-24)
same,"Pre-Emergent herbicidal rating, I Johnsongrass",Johnsongrass [5]; [23],0 (0-24)
same,"Pre-Emergent herbicidal rating, E Lambsquarter",Lambsquarter [6]; [23],3 (75-100)
same,"Pre-Emergent herbicidal rating, D Morningglory",Morningglory [7]; [23],0 (0-24)
same,"Pre-Emergent herbicidal rating, G Nutsedge",Nutsedge [8]; [23],1 (25-49)
same,"Pre-Emergent herbicidal rating, H Quackgrass",Quackgrass [9]; [23],0 (0-24)
same,"Pre-Emergent herbicidal rating, F Smartweed",Smartweed [10]; [23],2 (50-74)
same,"Pre-Emergent herbicidal rating, C Velvetleaf",Velvetleaf [11]; [23],0 (0-24)
same,"Post-Emergent herbicidal rating, K Barnyard grass",Barnyard grass [12]; [25],0 (0-24)
same,"Post-Emergent herbicidal rating, J Bromus tectorum",Bromus tectorum [13]; [25],0 (0-24)
same,"Post-Emergent herbicidal rating, A Canada Thistle",Canada Thistle [14]; [25],1 (25-49)
same,"Post-Emergent herbicidal rating, B Cocklebur",Cocklebur [15]; [25],0 (0-24)
same,"Post-Emergent herbicidal rating, I Johnsongrass",Johnsongrass [16]; [25],0 (0-24)
same,"Post-Emergent herbicidal rating, E Lambsquarter",Lambsquarter [17]; [25],0 (0-24)
same,"Post-Emergent herbicidal rating, D Morningglory",Morningglory [18]; [25],0 (0-24)
same,"Post-Emergent herbicidal rating, G Nutsedge",Nutsedge [19]; [25],0 (0-24)
same,"Post-Emergent herbicidal rating, H Quackgrass",Quackgrass [20]; [25],0 (0-24)
same,"Post-Emergent herbicidal rating, F Smartweed",Smartweed [21]; [25],0 (0-24)
same,"Post-Emergent herbicidal rating, C Velvetleaf",Velvetleaf [22]; [25],0 (0-24)
Cn1cc(C(=O)OCC2CC(F)(F)C2(F)F)c(-c2cccc(C(F)(F)F)c2)n1 (centres unmarked) [Example 18],"Pre-Emergent herbicidal rating, K Barnyard grass",Barnyard grass [1]; [24],1 (25-49)
same,"Pre-Emergent herbicidal rating, J Bromus tectorum",Bromus tectorum [2]; [24],1 (25-49)
same,"Pre-Emergent herbicidal rating, A Canada Thistle",Canada Thistle [3]; [24],1 (25-49)
same,"Pre-Emergent herbicidal rating, B Cocklebur",Cocklebur [4]; [24],0 (0-24)
same,"Pre-Emergent herbicidal rating, I Johnsongrass",Johnsongrass [5]; [24],0 (0-24)
same,"Pre-Emergent herbicidal rating, E Lambsquarter",Lambsquarter [6]; [24],2 (50-74)
same,"Pre-Emergent herbicidal rating, D Morningglory",Morningglory [7]; [24],1 (25-49)
same,"Pre-Emergent herbicidal rating, G Nutsedge",Nutsedge [8]; [24],0 (0-24)
same,"Pre-Emergent herbicidal rating, H Quackgrass",Quackgrass [9]; [24],0 (0-24)
same,"Pre-Emergent herbicidal rating, F Smartweed",Smartweed [10]; [24],2 (50-74)
same,"Pre-Emergent herbicidal rating, C Velvetleaf",Velvetleaf [11]; [24],1 (25-49)
same,"Post-Emergent herbicidal rating, K Barnyard grass",Barnyard grass [12]; [24],1 (25-49)
same,"Post-Emergent herbicidal rating, J Bromus tectorum",Bromus tectorum [13]; [24],1 (25-49)
same,"Post-Emergent herbicidal rating, A Canada Thistle",Canada Thistle [14]; [24],1 (25-49)
same,"Post-Emergent herbicidal rating, B Cocklebur",Cocklebur [15]; [24],1 (25-49)
same,"Post-Emergent herbicidal rating, I Johnsongrass",Johnsongrass [16]; [24],1 (25-49)
same,"Post-Emergent herbicidal rating, E Lambsquarter",Lambsquarter [17]; [24],2 (50-74)
same,"Post-Emergent herbicidal rating, D Morningglory",Morningglory [18]; [24],2 (50-74)
same,"Post-Emergent herbicidal rating, G Nutsedge",Nutsedge [19]; [24],0 (0-24)
same,"Post-Emergent herbicidal rating, H Quackgrass",Quackgrass [20]; [24],1 (25-49)
same,"Post-Emergent herbicidal rating, F Smartweed",Smartweed [21]; [24],1 (25-49)
same,"Post-Emergent herbicidal rating, C Velvetleaf",Velvetleaf [22]; [24],2 (50-74)
C=C(Cl)COC(=O)c1cn(C)nc1-c1cccc(C(F)(F)F)c1 [Example 19],"Pre-Emergent herbicidal rating, K Barnyard grass",Barnyard grass [1]; [24],2 (50-74)
same,"Pre-Emergent herbicidal rating, J Bromus tectorum",Bromus tectorum [2]; [24],1 (25-49)
same,"Pre-Emergent herbicidal rating, A Canada Thistle",Canada Thistle [3]; [24],1 (25-49)
same,"Pre-Emergent herbicidal rating, B Cocklebur",Cocklebur [4]; [24],0 (0-24)
same,"Pre-Emergent herbicidal rating, I Johnsongrass",Johnsongrass [5]; [24],1 (25-49)
same,"Pre-Emergent herbicidal rating, E Lambsquarter",Lambsquarter [6]; [24],3 (75-100)
same,"Pre-Emergent herbicidal rating, D Morningglory",Morningglory [7]; [24],1 (25-49)
same,"Pre-Emergent herbicidal rating, G Nutsedge",Nutsedge [8]; [24],1 (25-49)
same,"Pre-Emergent herbicidal rating, H Quackgrass",Quackgrass [9]; [24],1 (25-49)
same,"Pre-Emergent herbicidal rating, F Smartweed",Smartweed [10]; [24],2 (50-74)
same,"Pre-Emergent herbicidal rating, C Velvetleaf",Velvetleaf [11]; [24],1 (25-49)
same,"Post-Emergent herbicidal rating, K Barnyard grass",Barnyard grass [12]; [24],1 (25-49)
same,"Post-Emergent herbicidal rating, J Bromus tectorum",Bromus tectorum [13]; [24],0 (0-24)
same,"Post-Emergent herbicidal rating, A Canada Thistle",Canada Thistle [14]; [24],1 (25-49)
same,"Post-Emergent herbicidal rating, B Cocklebur",Cocklebur [15]; [24],1 (25-49)
same,"Post-Emergent herbicidal rating, I Johnsongrass",Johnsongrass [16]; [24],1 (25-49)
same,"Post-Emergent herbicidal rating, E Lambsquarter",Lambsquarter [17]; [24],1 (25-49)
same,"Post-Emergent herbicidal rating, D Morningglory",Morningglory [18]; [24],1 (25-49)
same,"Post-Emergent herbicidal rating, G Nutsedge",Nutsedge [19]; [24],0 (0-24)
same,"Post-Emergent herbicidal rating, H Quackgrass",Quackgrass [20]; [24],0 (0-24)
same,"Post-Emergent herbicidal rating, F Smartweed",Smartweed [21]; [24],1 (25-49)
same,"Post-Emergent herbicidal rating, C Velvetleaf",Velvetleaf [22]; [24],1 (25-49)
